Source: patent publication US20250092039A1, “GLUTARIMIDE-CONTAINING PAN-KRAS-MUTANT DEGRADER COMPOUNDS AND USES THEREOF” (Tiger Biotherapeutics Inc., priority 2022, published 2025)
Where two headings read alike, the source gives them in different places.

Columns and labels:
SW620 cells = test: 3D cell growth inhibition of SW620 cells carrying endogenous KRAS G12V mutation (CellTiter-Glo 3D, GI50); type: cell-based; settings: Homo sapiens, SW-620, 144 h, read-out: SW620 3D cell growth GI50
Description: The following day, the test compound was administered to the cells by using 1000× compound stock solution prepared in DMSO at various concentrations. 1000× compound stock solution was first diluted in culturing medium to 10×, then 10 μL compound medium was added to each well in the cell plates. After administration of the compound, the cells were then incubated at 37° C. for 6 days. Upon completion, the plates were equilibrated at room temperature for approximately 10 minutes. 100 μL of CellTiter-Glo® 3D Reagent (Promega) was added to each well. The plates were then incubated at room temperature for 30 minutes and luminescence was recorded by EnSpire plate reader (PerkinElmer).

KRAS-G12V/RAF1 = KRAS-G12V/RAF1 (Homo sapiens (Human), UniProt P01116, G12V); test: KRAS/RAF1 binding inhibition assay (AlphaScreen)
KRAS-G12V/RAF1, sequence (P01116-2 other isoform, or with tags, fused parts or gaps G12V): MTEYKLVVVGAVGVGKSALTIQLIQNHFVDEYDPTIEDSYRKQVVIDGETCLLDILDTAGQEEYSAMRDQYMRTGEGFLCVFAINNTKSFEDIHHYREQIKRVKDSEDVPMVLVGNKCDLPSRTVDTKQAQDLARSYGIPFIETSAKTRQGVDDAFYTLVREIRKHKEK
In short: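 IC50 comes from variable-slope nonlinear fits of % inhibition (relative to DMSO) against inhibitor concentration. The AlphaScreen signal tracks the interaction of GppNHp-bound KRAS G12V with the RAF1 RBD after 60 min at 4° C with compound in 2% DMSO final.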

KRAS G12V = KRAS G12V (Homo sapiens (Human), UniProt P01116, G12V); test: KRAS G12V degradation in SW620 cells (Western blot, DC50); type: cell-based; settings: 24 hours
KRAS G12V, sequence (P01116-2 other isoform, or with tags, fused parts or gaps G12V): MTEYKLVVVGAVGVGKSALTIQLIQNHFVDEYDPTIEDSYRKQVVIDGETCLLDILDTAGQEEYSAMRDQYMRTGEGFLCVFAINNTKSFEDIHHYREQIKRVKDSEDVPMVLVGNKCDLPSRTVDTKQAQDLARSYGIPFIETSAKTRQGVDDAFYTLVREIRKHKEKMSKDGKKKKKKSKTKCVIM
In short: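 KRAS levels were quantified by fluorescent Western blot as percent of the DMSO control after 24 h of compound exposure at 37° C in homozygous KRAS G12V SW620 cells. A four-parameter variable-slope fit of the dose-response gave the half-maximal degradation concentration.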

Row | IC50 (KRAS-G12V/RAF1) | DC50 (KRAS G12V) | GI50 (SW620 cells; SW620 cells, 6 days) | Compound | GI50 (SW620 cells)
1 | < 20 nM | 1 to 10 nM | < 10 nM | CCc1c(F)ccc2cc(O)cc(-c3ncc4c(N5CCCC(C)(O)C5)nc(OCC5(CN6CCC7(CC6)CCC(C)(N6CCN(c8ccc9c(c8)CN(C8CCC(=O)NC8=O)C9=O)CC6)CC7)CC5)nc4c3F)c12 (stereo in doubt) [Compound 167, 3-[5-[4-[3-[[1-[[7-(8-ethyl-7-fluoro-3-hydroxy-1-naphthyl)-8-fluoro-4-[(3R)-3-hydroxy-3-methyl-1-piperidyl]pyrido[4,3-d]pyrimidin-2-yl]oxymethyl]cyclopropyl]methyl]-9-methyl-3-azaspiro[5.5]undecan-9-yl]piperazin-1-yl]-1-oxo-isoindolin-2-yl]piperidine-2,6-dione] | –
2 | 20 to 200 nM | < 1 nM | 10 to 100 nM | CCc1c(F)ccc2cc(O)cc(-c3ncc4c(N5CCC[C@@](C)(O)C5)nc(OCC5(CN6CCC7(CC6)CC(CN6CCN(c8ccc9c(c8)CN([C@H]8CCC(=O)NC8=O)C9=O)CC6)C7)CC5)nc4c3F)c12 [Compound 2, (S)-3-(5-(4-((7-((1-(((7-(8-ethyl-7-fluoro-3-hydroxynaphthalen-1-yl)-8-fluoro-4-((R)-3-hydroxy-3-methylpiperidin-1-yl)pyrido[4,3-d]pyrimidin-2-yl)oxy)methyl)cyclopropyl)methyl)-7-azaspiro[3.5]nonan-2-yl)methyl)piperazin-1-yl)-1-oxoisoindolin-2-yl)piperidine-2,6-dione] | –
3 | > 200 nM | > 100 nM | > 100 nM | CCc1c(F)ccc2cc(O)cc(-c3ncc4c(NCC5(N(C)C)CCC5)nc(OCC5(CN6CCC7(CC6)CC(CN6CCN(c8ccc9c(c8)CN([C@H]8CCC(=O)NC8=O)C9=O)CC6)C7)CC5)nc4c3F)c12 [Compound 3, (S)-3-(5-(4-((7-((1-(((4-(((1-(dimethylamino)cyclobutyl)methyl)amino)-7-(8-ethyl-7-fluoro-3-hydroxynaphthalen-1-yl)-8-fluoropyrido[4,3-d]pyrimidin-2-yl)oxy)methyl)cyclopropyl)methyl)-7-azaspiro[3.5]nonan-2-yl)methyl)piperazin-1-yl)-1-oxoisoindolin-2-yl)piperidine-2,6-dione] | –
4 | > 200 nM | > 100 nM | > 100 nM | CCc1c(F)ccc2cc(O)cc(-c3ncc4c(N5CCC=CCC5)nc(OCC5(CN6CCC7(CC6)CC(CN6CCN(c8ccc9c(c8)CN([C@H]8CCC(=O)NC8=O)C9=O)CC6)C7)CC5)nc4c3F)c12 [Compound 4, (S)-3-(5-(4-((7-((1-(((7-(8-ethyl-7-fluoro-3-hydroxynaphthalen-1-yl)-8-fluoro-4-(2,3,6,7-tetrahydro-1H-azepin-1-yl)pyrido[4,3-d]pyrimidin-2-yl)oxy)methyl)cyclopropyl)methyl)-7-azaspiro[3.5]nonan-2-yl)methyl)piperazin-1-yl)-1-oxoisoindolin-2-yl)piperidine-2,6-dione] | –
5 | 20 to 200 nM | < 1 nM | < 10 nM | CCc1cccc2cc(O)cc(-c3ncc4c(N5CCC[C@@](C)(O)C5)nc(OCC5(CN6CCC(CN7CCN(c8ccc9c(c8)CN([C@H]8CCC(=O)NC8=O)C9=O)CC7)CC6)CC5)nc4c3F)c12 [Compound 6, (S)-3-(5-(4-((1-((1-(((7-(8-ethyl-3-hydroxynaphthalen-1-yl)-8-fluoro-4-((R)-3-hydroxy-3-methylpiperidin-1-yl)pyrido[4,3-d]pyrimidin-2-yl)oxy)methyl)cyclopropyl)methyl)piperidin-4-yl)methyl)piperazin-1-yl)-1-oxoisoindolin-2-yl)piperidine-2,6-dione] | –
6 | > 200 nM | – | 10 to 100 nM | CCc1cccc2cc(O)cc(-c3ncc4c(N(C)[C@@H]5C[C@H]5F)nc(OCC5(CN6CCC(CN7CCN(c8ccc9c(c8)CN([C@H]8CCC(=O)NC8=O)C9=O)CC7)CC6)CC5)nc4c3F)c12 [Compound 29, (S)-3-(5-(4-((1-((1-(((7-(8-ethyl-3-hydroxynaphthalen-1-yl)-8-fluoro-4-(((1R,2R)-2-fluorocyclopropyl)(methyl)amino)pyrido[4,3-d]pyrimidin-2-yl)oxy)methyl)cyclopropyl)methyl)piperidin-4-yl)methyl)piperazin-1-yl)-1-oxoisoindolin-2-yl)piperidine-2,6-dione] | –
7 | 20 to 200 nM | – | < 10 nM | CCc1c(F)ccc2cc(O)cc(-c3ncc4c(N5CCC[C@]6(CCO6)C5)nc(OCC5(CN6CCC(CN7CCN(c8ccc9c(c8)CN([C@H]8CCC(=O)NC8=O)C9=O)CC7)CC6)CC5)nc4c3F)c12 [Compound 44, (S)-3-(5-(4-((1-((1-(((7-(8-ethyl-7-fluoro-3-hydroxynaphthalen-1-yl)-8-fluoro-4-((S)-1-oxa-6-azaspiro[3.5]nonan-6-yl)pyrido[4,3-d]pyrimidin-2-yl)oxy)methyl)cyclopropyl)methyl)piperidin-4-yl)methyl)piperazin-1-yl)-1-oxoisoindolin-2-yl)piperidine-2,6-dione] | –
8 | > 200 nM | – | > 100 nM | CCc1c(F)ccc2cc(O)cc(-c3ncc4c(N5CCC[C@@]6(CCO6)C5)nc(OCC5(CN6CCC(CN7CCN(c8ccc9c(c8)CN([C@H]8CCC(=O)NC8=O)C9=O)CC7)CC6)CC5)nc4c3F)c12 [Compound 45, (S)-3-(5-(4-((1-((1-(((7-(8-ethyl-7-fluoro-3-hydroxynaphthalen-1-yl)-8-fluoro-4-((R)-1-oxa-6-azaspiro[3.5]nonan-6-yl)pyrido[4,3-d]pyrimidin-2-yl)oxy)methyl)cyclopropyl)methyl)piperidin-4-yl)methyl)piperazin-1-yl)-1-oxoisoindolin-2-yl)piperidine-2,6-dione] | –
9 | – | < 1 nM | < 10 nM | C[C@@]1(O)CCCN(c2nc(OCC3(CN4CCC5(CC4)CC(CN4CCN(c6ccc7c(c6)CN([C@H]6CCC(=O)NC6=O)C7=O)CC4)C5)CC3)nc3c(F)c(-c4cc(O)cc5ccc(F)c(Cl)c45)ncc23)C1 [Compound 157, (S)-3-(5-(4-((7-((1-(((7-(8-chloro-7-fluoro-3-hydroxynaphthalen-1-yl)-8-fluoro-4-((R)-3-hydroxy-3-methylpiperidin-1-yl)pyrido[4,3-d]pyrimidin-2-yl)oxy)methyl)cyclopropyl)methyl)-7-azaspiro[3.5]nonan-2-yl)methyl)piperazin-1-yl)-1-oxoisoindolin-2-yl)piperidine-2,6-dione] | –
10 | – | 1 to 10 nM | < 10 nM | CCc1c(F)ccc2cc(O)cc(-c3ncc4c(N5CCC[C@@](C)(O)C5)nc(OCC5(CN6CC(N7CC8(CN(c9ccc%10c(c9)CN(C9CCC(=O)NC9=O)C%10=O)C8)C7)C6)CC5)nc4c3F)c12 (stereo partly drawn) [Compound 158, 3-(5-(6-(1-((1-(((7-(8-ethyl-7-fluoro-3-hydroxynaphthalen-1-yl)-8-fluoro-4-((R)-3-hydroxy-3-methylpiperidin-1-yl)pyrido[4,3-d]pyrimidin-2-yl)oxy)methyl)cyclopropyl)methyl)azetidin-3-yl)-2,6-diazaspiro[3.3]heptan-2-yl)-1-oxoisoindolin-2-yl)piperidine-2,6-dione] | –
11 | – | < 1 nM | < 10 nM | CCc1c(F)ccc2cc(O)cc(-c3ncc4c(N5CCC[C@@](C)(O)C5)nc(OCC5(CN6CCC7(CC6)CC(C)(N6CCN(c8ccc9c(c8)CN(C8CCC(=O)NC8=O)C9=O)CC6)C7)CC5)nc4c3F)c12 (stereo partly drawn) [Compound 159, 3-[5-[4-[7-[[1-[[7-(8-ethyl-7-fluoro-3-hydroxy-1-naphthyl)-8-fluoro-4-[(3R)-3-hydroxy-3-methyl-1-piperidyl]pyrido[4,3-d]pyrimidin-2-yl]oxymethyl]cyclopropyl]methyl]-2-methyl-7-azaspiro[3.5]nonan-2-yl]piperazin-1-yl]-1-oxo-isoindolin-2-yl]piperidine-2,6-dione] | –

Row | Compound | IC50 (KRAS-G12V/RAF1) | DC50 (KRAS G12V) | GI50 (SW620 cells; SW620 cells, 6 days) | GI50 (SW620 cells)
12 | CCc1c(F)ccc2cc(O)cc(-c3ncc4c(N5CCOCC(C)(O)C5)nc(OCC5(CN6CCC7(CC6)CC(CN6CCN(c8ccc9c(c8)CN([C@H]8CCC(=O)NC8=O)C9=O)CC6)C7)CC5)nc4c3F)c12 (mixture of isomers) [Compound 91, (3S)-3-(5-(4-((7-((1-(((7-(8-ethyl-7-fluoro-3-hydroxynaphthalen-1-yl)-8-fluoro-4-(6-hydroxy-6-methyl-1,4-oxazepan-4-yl)pyrido[4,3-d]pyrimidin-2-yl)oxy)methyl)cyclopropyl)methyl)-7-azaspiro[3.5]nonan-2-yl)methyl)piperazin-1-yl)-1-oxoisoindolin-2-yl)piperidine-2,6-dione] | 20 to 200 nM | 1 to 10 nM | – | < 10 nM
13 | CCc1c(F)ccc2cc(O)cc(-c3ncc4c(N5CCCOC6CC65)nc(OCC5(CN6CCC7(CC6)CC(CN6CCN(c8ccc9c(c8)CN([C@H]8CCC(=O)NC8=O)C9=O)CC6)C7)CC5)nc4c3F)c12 (stereo partly drawn) [Compound 165, (3S)-3-(5-(4-((7-((1-(((4-(2-oxa-6-azabicyclo[5.1.0]octan-6-yl)-7-(8-ethyl-7-fluoro-3-hydroxynaphthalen-1-yl)-8-fluoropyrido[4,3-d]pyrimidin-2-yl)oxy)methyl)cyclopropyl)methyl)-7-azaspiro[3.5]nonan-2-yl)methyl)piperazin-1-yl)-1-oxoisoindolin-2-yl)piperidine-2,6-dione] | – | 1 to 10 nM | – | 10 to 100 nM
